Like-named read-outs stand apart in the source and are kept apart here.
Experiments:
[1] = DPPH bleaching (radical scavenging); details: 25 μM DPPH in ethanol, 30 min at room temperature, absorbance 517 nm; ± SEM
Protocol: DPPH solution (25 μM) in absolute ethanol was prepared. […] Ethanol was used as control solution. After 30 min at room temperature, the absorbance was recorded at 517 nm.
The radical scavenging ability of all synthetic compounds using stable free radicals (DPPH: 2,2-diphenyl-
1-picrylhydrazyl) has been previously measured (Table 1) ([15]). In this assessment, the DPPH bleaching potency of the synthetic compounds has been reported as IC50 values.

[2] = biological target: T1, SLO (soybean 15-lipoxygenase: L1; EC 1,13,11,12) (Glycine max, UniProt P08170); assay: 15-lipoxygenase inhibitory assessment (peroxide formation method); assay type: biochemical; details: for IC50: SLO
T1 sequence (P08170 1-839): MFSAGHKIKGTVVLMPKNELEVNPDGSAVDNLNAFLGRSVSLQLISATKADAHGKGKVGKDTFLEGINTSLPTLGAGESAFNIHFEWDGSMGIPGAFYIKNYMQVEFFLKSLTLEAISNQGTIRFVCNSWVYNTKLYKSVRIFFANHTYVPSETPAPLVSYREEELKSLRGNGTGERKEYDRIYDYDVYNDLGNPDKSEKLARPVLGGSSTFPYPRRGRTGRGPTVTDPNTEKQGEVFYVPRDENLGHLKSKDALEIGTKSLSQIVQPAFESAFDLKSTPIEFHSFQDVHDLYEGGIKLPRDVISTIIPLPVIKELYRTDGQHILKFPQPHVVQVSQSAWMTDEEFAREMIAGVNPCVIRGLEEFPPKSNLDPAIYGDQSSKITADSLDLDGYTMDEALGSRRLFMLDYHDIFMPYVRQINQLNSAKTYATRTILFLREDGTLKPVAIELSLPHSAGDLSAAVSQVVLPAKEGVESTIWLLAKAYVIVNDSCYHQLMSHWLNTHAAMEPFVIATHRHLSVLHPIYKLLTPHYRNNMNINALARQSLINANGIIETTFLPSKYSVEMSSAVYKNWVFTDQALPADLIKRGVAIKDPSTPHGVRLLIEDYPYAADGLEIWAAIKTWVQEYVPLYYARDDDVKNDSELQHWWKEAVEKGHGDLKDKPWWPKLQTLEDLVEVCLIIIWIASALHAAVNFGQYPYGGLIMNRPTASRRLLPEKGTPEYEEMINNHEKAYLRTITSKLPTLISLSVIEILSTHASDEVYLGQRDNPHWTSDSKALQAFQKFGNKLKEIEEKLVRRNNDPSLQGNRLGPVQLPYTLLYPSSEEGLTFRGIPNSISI
Protocol: Linoleic acid and two assay solutions (A and B) were prepared in advance. Solution A was 50 mM (3-dimethylaminobenzoic acid) (DMAB) in l00 mM phosphate buffer (pH 7.0). Solution B was a mixture of l0 mM (3-methyl-2-benzothiazolonhydrazone) (MBTH) (3 ml), hemoglobin (5 mg/ml, 3 ml) in 50 mM phosphate buffer at pH 5.0 (25 ml). A linoleic acid solution was prepared by mixing 5 mg of linoleic acid with 0.5 ml ethanol and then diluting with KOH 100 mM to a final volume of 5 ml. In the standard assay, the sample in ethanol (25 µl), SLO (4,000 units/ml in 50 mM phosphate buffer pH 7.0; 25 µl), and phosphate buffer pH 7.0 (50 mM; 900 µl) were mixed in a test tube, and pre-incubation was carried out for 5 min at room temperature. A control test was performed with the same volume of ethanol. After pre-incubation, linoleic acid solution (50 µl) was added to start the peroxidation reaction, and, 7 min later, solution A (270 µl) and then solution B (130 µl) were added to start the color formation. Further, 5 min later, 200 µl of a 2 % sodium dodecyl sulfate (SDS) solution was added to terminate the reaction. The absorbance at 598 nm was compared to control test.
The inhibitory activity of all synthetic compounds against SLO (soybean 15-lipoxygenase: L1; EC 1,13,11,12) was determined using the peroxide formation method ([13], [14]). In this method, the basis of evaluation of lipoxygenase activity is measuring the concentration of fatty acid peroxide. All measurements were compared with 4-methyl-2-(4-methylpiperazinyl)pyrimido[4,5-b]benzothiazine (4-MMPB), one of the known lipoxygenase inhibitors (Table 1).

[3] = linoleic acid substrate, pH 7.0, absorbance 598 nm, ± SEM, read-out: Lipoxygenase inhibition IC50
[4] = read-out: IC50 inhibitory activity against soybean 15-lipoxygenase (abstract)

SMILES	IC50 [1] [µM]	melting point [°C]	IC50 [2, 3] [µM]	IC50 [2, 4] [µM]	fold less inhibitory potency versus 2b ([2]; lipoxygenase inhibition IC50 compared with 2b)
COc1cc(C(=O)O[C@H]2C3(C)CCC(C3)C2(C)C)ccc1O (stereo partly drawn) [2a, (2S)-1,3,3-trimethylbicyclo[2.2.1]heptan-2-yl 4-hydroxy-3-methoxybenzoate]	> 500	120 to 122	40.1 ± 2.2	–	–
CC12CCC(C1)C(C)(C)[C@H]2OC(=O)c1ccc(O)c(O)c1 (stereo partly drawn) [2b, (2S)-1,3,3-trimethylbicyclo[2.2.1]heptan-2-yl 3,4-dihydroxybenzoate]	10 ± 1	58 to 61	1.68 ± 0.61	–	–
COc1cccc(C(=O)O[C@H]2C3(C)CCC(C3)C2(C)C)c1 (stereo partly drawn) [2c, (2S)-1,3,3-trimethylbicyclo[2.2.1]heptan-2-yl 3-methoxybenzoate]	> 500	–	> 500	–	–
COc1ccc(C(=O)O[C@H]2C3(C)CCC(C3)C2(C)C)cc1OC (stereo partly drawn) [2d, (2S)-1,3,3-trimethylbicyclo[2.2.1]heptan-2-yl 3,4-dimethoxybenzoate]	> 500	–	> 500	–	–
CC12CCC(C1)C(C)(C)[C@H]2OC(=O)c1cc(O)c(O)c(O)c1 (stereo partly drawn) [2e, (2S)-1,3,3-trimethylbicyclo[2.2.1]heptan-2-yl 3,4,5-trihydroxybenzoate]	3.46 ± 0.33	171 to 173	1.71 ± 0.41	–	–
COc1cc(/C=C/C(=O)O[C@H]2C3(C)CCC(C3)C2(C)C)ccc1O (stereo partly drawn) [2f, (2S)-1,3,3-trimethylbicyclo[2.2.1]heptan-2-yl(E)-3-(4-hydroxy-3-methoxyphenyl)acrylate]	> 500	–	194 ± 11.3	–	–
CC12CCC(C1)C(C)(C)[C@H]2OC(=O)/C=C/c1ccc(O)c(O)c1 (stereo partly drawn) [2g, (2S)-1,3,3-trimethylbicyclo[2.2.1]heptan-2-yl (E)-3-(3,4-dihydroxyphenyl)acrylate]	10.9 ± 1.1	–	1.67 ± 0.22	–	–
COc1cc(C(=O)O[C@@H]2CC3CCC2(C)C3(C)C)ccc1O (stereo partly drawn) [2h, (2R)-1,7,7-trimethylbicyclo[2.2.1]heptan-2-yl 4-hydroxy-3-methoxybenzoate]	> 500	–	273 ± 11.3	–	–
COc1cc(C(=O)OC23CC4CC(CC(C4)C2)C3)ccc1O [2i, (3s,5s,7s)-adamantan-1-yl 4-hydroxy-3-methoxy benzoate]	> 500	136 to 139	164 ± 13.2	–	–
O=C(OC12CC3CC(CC(C3)C1)C2)c1ccc(O)c(O)c1 [2j, (3s,5s,7s)-adamantan-1-yl 3,4-dihydroxybenzoate]	9.1 ± 0.79	170 to 173	–	0.95	–
O=C(OC12CC3CC(CC(C3)C1)C2)c1cc(O)c(O)c(O)c1 [2k, (3s,5s,7s)-adamantan-1-yl 3,4,5-trihydroxybenzoate]	4.5 ± 0.19	195 to 199	2.28 ± 0.1	–	–
O=C(/C=C/c1ccc(O)c(O)c1)OC12CC3CC(CC(C3)C1)C2 [2l, (3s,5s,7s)-adamantan-1-yl (E)-3-(3,4-dihydroxyphenyl) acrylate]	18 ± 1.9	191 to 196	3.9 ± 0.61	–	–
O=C(OCC12CC3CC(CC(C3)C1)C2)c1ccc(O)c(O)c1 [2m, (3r,5r,7r)-adamantan-1-yl)methyl 3,4-dihydroxybenzoate]	10.8 ± 0.67	212 to 217	3.57 ± 0.19	–	–
O=C(/C=C/c1ccc(O)c(O)c1)OCC12CC3CC(CC(C3)C1)C2 [2n, ((3r,5r,7r)-adamantan-1-yl)methyl(E)-3-(3,4-dihydroxyphenyl)acrylate]	5.98 ± 0.53	161 to 164	2.7 ± 0.13	–	–
CC1(C)C2CCC1(C)[C@H](OC(=O)c1ccc(O)c(O)c1)C2 (stereo partly drawn) [2o, (2R)-1,7,7-trimethylbicyclo[2.2.1]heptan-2-yl 3,4-dihydroxybenzoate]	9.4 ± 0.81	40 to 42	–	0.78	–
CCOC(=O)c1ccc(O)c(O)c1 [2p, ethyl catechuate]	9.2 ± 0.45	–	6.5 ± 0.53	–	about 5 fold
O=C(NC12CC3CC(CC(C3)C1)C2)c1ccc(O)c(O)c1 [3a', N-((3s,5s,7s)-adamantan-1-yl)-3,4-dihydroxybenzamide]	6.5 ± 0.43	209 to 211	5.4 ± 0.55	–	–
COc1cc(/C=C/C(=O)NC23CC4CC(CC(C4)C2)C3)ccc1O [3b', (E)-N-((3s,5s,7s)-adamantan-1-yl)-3-(4-hydroxy-3-methoxyphenyl)acrylamide]	5.05 ± 4.08	130 to 132	188 ± 14	–	–
Cc1nc(N2CCN(C)CC2)nc2c1Sc1ccccc1N2 [4-MMPB, 4-methyl-2-(4-methylpiperazinyl)pyrimido[4,5-b]benzothiazine, reference compound]	17.1 ± 2	–	38.5 ± 1.97	–	–

Source: PMC6098951, “Design and synthesis of new esters of terpenoid alcohols as 15-lipoxygenase inhibitors” (Iranian Journal of Basic Medical Sciences, 2018)
